Laboratory results from patent US11542471B2, “Method for producing ciliary marginal zone-like structure” (SUMITOMO CHEMICAL COMPANY, LIMITED, priority 2012, dated 2023).

Test system: cell aggregate containing a retinal tissue (RAX::GFP knock-in human ES cells, derived from KhES-1)
Experiment: Suspension culture of a human ES cell-derived cell aggregate containing retinal tissue in serum-free medium with a substance acting on the Wnt signal pathway; cryosection immunostaining
Assay type: cell-based
Conditions: 3 μM CHIR99021, serum-free medium, 3 days from day 18 of suspension culture
Method: The “proportion of Chx10 positive cells” in a retinal tissue contained in a cell aggregate produced as mentioned above can be examined by, for example, the following method. • (1) First, a cryosection of “a cell aggregate comprising a retinal tissue” is prepared. • (2) Then, immunostaining of Rax protein or, when a gene recombinant cell obtained by altering a Rax gene expressing cell to express a fluorescence protein such as GFP is used, the expression of the aforementioned fluorescence protein, is observed using a fluorescence microscope and so on, whereby a retinal tissue region expressing Rax gene is specified. • (3) Using the same section as the cryosection wherein the retinal tissue region expressing Rax gene has been specified or an adjacent section as a sample, the nucleus is stained with a nuclear staining reagent such as Dapi. Then, the number of stained nuclei in the above-specified retinal tissue region expressing Rax gene is counted, whereby the number of the cells in the retinal tissue region is measured. • (4) Using the same section as the cryosection wherein the retinal tissue region expressing Rax gene has been specified or an adjacent section as a sample, Chx10 protein is immunostained. […]

Cc1c[nH]c(-c2cnc(NCCNc3ccc(C#N)cn3)nc2-c2ccc(Cl)cc2Cl)n1 [CHIR99021]
appearance of RPE65 gene expressing cell in the cell aggregate: did not appear | proportion of Chx10 positive cells in the retinal tissue (about 40% before addition): about 3%
